For the experiment, the target named is T1, KRAS G12D (Homo sapiens, UniProt P01116, G12D).
T1 construct: AsPc-1-KRAS (G12D)-HiBit-KI cell (Pharmaron); host or cells: AsPc-1-KRAS (G12D)-HiBit-KI cells (HiBiT knock-in at the endogenous KRAS locus)
Briefly: KRAS G12D HiBit assay. It is filed as cell-based. Conditions: AsPc-1-KRAS (G12D)-HiBit-KI cell, compound treatment for 24 hours; for DC50: absolute DC50. As for the experimental part: Day 1. […] Allowed cells to reach approximately 80% confluence before splitting. Rinsed cultivated cells in T-75 flasks with 5 mL PBS (Solarbio, P1020-500). […] Inactivated trypsin by adding excessive serum containing medium. Harvested the cells from flask into cell culture medium and counted the cell number.
Day 2. Test compounds were dissolved at 0.3 mM in DMSO (Solarbio, D8371) as stock solution. […] Performed 3-fold, 10-points dilution via transferring 15 μL compound into 30 μL DMSO by using TECAN liquid handler (TECAN, Freedom EVO200).
Day 3. After compound treatment for 24 hours, removed the plate from incubators and equilibrated at room temperature for 15 minutes. Prepared the HiBit reagent (Promega, N3040) by mixing 10 mL of Nano-Glo®-HiBiT Lytic Buffer with 200 μL of Nano-Glo®-HiBiT Lytic Substrate and 100 μL of LgBiT Protein. Added 20 μL of HiBit reagent into each well of the cell plate and spun the plates at room temperature at 1,000 RPM for 1 minute.
The inhibition activity was calculated using the following formula:
[formula] where HC (high control) is obtained from cells treated with 0.1% DMSO only.

Setting [1] is: numeric bounds given in place of class symbols.

Some results are limits rather than exact numbers.

T1 sequence (P01116 1-188 isoform P01116-2 G12D): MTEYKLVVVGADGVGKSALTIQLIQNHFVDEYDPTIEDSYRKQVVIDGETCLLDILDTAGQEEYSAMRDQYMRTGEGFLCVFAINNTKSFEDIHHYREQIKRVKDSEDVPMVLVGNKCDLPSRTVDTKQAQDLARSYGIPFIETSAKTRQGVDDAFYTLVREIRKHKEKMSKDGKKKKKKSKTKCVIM

In turn, `C#Cc1c(F)ccc2cc(O)cc(-c3ncc4c(N5CCC[C@@](C)(O)C5)nc(OC[C@@]56CCCN5[C@H](COC(=O)NCCOCCOCCOc5ccc7c(c5)n(C)c(=O)n7C5CCC(=O)NC5=O)CC6)nc4c3F)c12` (stereo partly drawn) [Compound 115, ((3S,7aS)-7a-(((7-(8-ethynyl-7-fluoro-3-hydroxynaphthalen-1-yl)-8-fluoro-4-((R)-3-hydroxy-3-methylpiperidin-1-yl)pyrido[4,3-d]pyrimidin-2-yl)oxy)methyl)hexahydro-1H-pyrrolizin-3-yl)methyl (2-(2-(2-((1-(2,6-dioxopiperidin-3-yl)-3-methyl-2-oxo-2,3-dihydro-1H-benzo[d]imidazol-5-yl)oxy)ethoxy)ethoxy)ethyl) carbamate] showed a DC50 (class symbols) above 300 nM. Same read-out and setting: the figure for `C#Cc1c(F)ccc2cc(O)cc(-c3ncc4c(N5CCC[C@@](C)(O)C5)nc(OCC5(CN6CCC(CN7CCN(c8ccc9c(c8)C(=O)N(C8CCC(=O)NC8=O)C9=O)CC7)CC6)CC5)nc4c3F)c12` (some centres unmarked) [Compound 46] is below 100 nM.

The compound `C#Cc1c(F)ccc2cccc(-c3ncc4c(N5CCC[C@@](C)(O)C5)nc(OCC5(CN6CCC(CN7CCC(c8ccc9c(c8)n(C)c(=O)n9C8CCC(=O)NC8=O)CC7)CC6)CC5)nc4c3F)c12` (some centres unmarked) [Compound 48] came in with a DC50 (class symbols) above 300 nM. Consider `C#Cc1c(F)ccc2cccc(-c3ncc4c(N5CCC[C@@](C)(O)C5)nc(OC[C@@]56CCCN5[C@H](COC(=O)NCCOCCOCCOc5ccc7c(c5)n(C)c(=O)n7C5CCC(=O)NC5=O)CC6)nc4c3F)c12` (stereo partly drawn) [Compound 108, ((3S,7aS)-7a-(((7-(8-ethynyl-7-fluoronaphthalen-1-yl)-8-fluoro-4-((R)-3-hydroxy-3-methylpiperidin-1-yl)pyrido[4,3-d]pyrimidin-2-yl)oxy)methyl)hexahydro-1H-pyrrolizin-3-yl)methyl (2-(2-(2-((1-(2,6-dioxopiperidin-3-yl)-3-methyl-2-oxo-2,3-dihydro-1H-benzo[d]imidazol-5-yl)oxy)ethoxy)ethoxy)ethyl) carbamate], for which, under “class symbols”, the DC50 is above 300 nM and the Dmax is 15 to 50%. As for `C#Cc1c(F)ccc2cccc(-c3ncc4c(N5CCC[C@@](C)(O)C5)nc(OCC5(CN6CCN(Cc7ccc8c(c7)n(C)c(=O)n8C7CCC(=O)NC7=O)CC6)CC5)nc4c3F)c12` (some centres unmarked) [Compound 37], for the setting “class symbols”, the DC50 is above 300 nM. Still for that read-out and setting: the figure for `C#Cc1c(F)ccc2cc(O)cc(-c3ncc4c(N5CCC[C@@](C)(O)C5)nc(OCC5(CN6CCC(N7CCN(c8ccc9c(c8)n(C)c(=O)n9C8CCC(=O)NC8=O)CC7)CC6)CC5)nc4c3F)c12` (some centres unmarked) [Compound 30] is below 100 nM; for `C#Cc1c(F)ccc2cc(O)cc(-c3ncc4c(N5CCC[C@@](C)(O)C5)nc(OC[C@@]56CCCN5[C@H](COC(=O)NCCOCCOc5ccc7c(c5)n(C)c(=O)n7C5CCC(=O)NC5=O)CC6)nc4c3F)c12` (stereo partly drawn) [Compound 114, ((3S,7aS)-7a-(((7-(8-Ethynyl-7-fluoro-3-hydroxynaphthalen-1-yl)-8-fluoro-4-((R)-3-hydro-xy-3-methylpiperidin-1-yl)pyrido[4,3-d]pyrimidin-2-yl)oxy)methyl)hexahydro-1H-pyrrolizin-3-yl)methyl (2-(2-((1-(2,6-dioxopiperidin-3-yl)-3-methyl-2-oxo-2,3-dihydro-1H-benzo[d]imidazol-5-yl)oxy)ethoxy)ethyl) carbamate] it is above 300 nM; for `C#Cc1c(F)ccc2cc(O)cc(-c3ncc4c(N5CCC[C@@](C)(O)C5)nc(OCC5(CN6CCC(N7CCC(c8cccc9c8n(C)c(=O)n9C8CCC(=O)NC8=O)CC7)CC6)CC5)nc4c3F)c12` (some centres unmarked) [Compound 85] it is below 100 nM. On the same count and under the same terms, the figure for `C#Cc1c(F)ccc2cc(O)cc(-c3ncc4c(N5CCC[C@@](C)(O)C5)nc(OCC5(CN6CCC(N7CCC(c8ccc9c(c8)n(C)c(=O)n9C8CCC(=O)NC8=O)CC7)CC6)CC5)nc4c3F)c12` (some centres unmarked) [Compound 59] is below 100 nM; for `C#Cc1c(F)ccc2cccc(-c3ncc4c(N5CCC[C@@](C)(O)C5)nc(OCC5(CN6CCN(Cc7cccc8c7n(C)c(=O)n8C7CCC(=O)NC7=O)CC6)CC5)nc4c3F)c12` (some centres unmarked) [Compound 61] it is above 300 nM. Still for that read-out and setting: the figure for `C#Cc1c(F)ccc2cccc(-c3ncc4c(N5CCC[C@@](C)(O)C5)nc(OCC5(CN6CCC(N7CCN(c8ccc9c(c8)n(C)c(=O)n9C8CCC(=O)NC8=O)CC7)CC6)CC5)nc4c3F)c12` (some centres unmarked) [Compound 29] is above 300 nM. Consider `C#Cc1c(F)ccc2cccc(-c3ncc4c(N5CCC[C@@](C)(O)C5)nc(OCC5(CN6CCC7(CCC(c8cccc9c8n(C)c(=O)n9C8CCC(=O)NC8=O)CC7)CC6)CC5)nc4c3F)c12` (some centres unmarked) [Compound 66], for which, under “class symbols”, the DC50 is above 300 nM. Still for that read-out and setting: the figure for `C#Cc1c(F)ccc2cc(O)cc(-c3ncc4c(N5CCC[C@@](C)(O)C5)nc(OCC5(CN6CCN(C7CCN(c8ccc9c(c8)n(C)c(=O)n9C8CCC(=O)NC8=O)CC7)CC6)CC5)nc4c3F)c12` (some centres unmarked) [Compound 45] is below 100 nM. The same measure, in the same setting: the figure for `CCc1c(F)ccc2cc(O)cc(-c3ncc4c(N5CCC[C@@](C)(O)C5)nc(OC[C@@]56CCCN5[C@H](COC(=O)NCCOCCOCCOc5ccc7c(c5)n(C)c(=O)n7C5CCC(=O)NC5=O)CC6)nc4c3F)c12` (stereo partly drawn) [Compound 113, ((3S,7aS)-7a-(((7-(8-Ethyl-7-fluoro-3-hydroxynaphthalen-1-yl)-8-fluoro-4-((R)-3-hydroxy-3-methylpiperidin-1-yl)pyrido[4,3-d]pyrimidin-2-yl)oxy)methyl)hexahydro-1H-pyrrolizin-3-yl)methyl (2-(2-(2-((1-(2,6-dioxopiperidin-3-yl)-3-methyl-2-oxo-2,3-dihydro-1H-benzo[d]imidazol-5-yl)oxy)ethoxy)ethoxy)ethyl) carbamate] is above 300 nM; for `C#Cc1c(F)ccc2cc(O)cc(-c3ncc4c(N5CCC[C@@](C)(O)C5)nc(OCC5(CN6CCC7(CC6)CC(N6CCC(c8ccc9c(c8)n(C)c(=O)n9C8CCC(=O)NC8=O)CC6)C7)CC5)nc4c3F)c12` (some centres unmarked) [Compound 54] it is below 100 nM.

Compound `C#Cc1c(F)ccc2cccc(-c3ncc4c(N5CCC[C@@](C)(O)C5)nc(OCC5(CN6CCC7(CC6)CC(N6CCC(c8ccc9c(c8)n(C)c(=O)n9C8CCC(=O)NC8=O)CC6)C7)CC5)nc4c3F)c12` (some centres unmarked) [Compound 36] gave a DC50 (class symbols) above 300 nM.

On to `C#Cc1c(F)ccc2cccc(-c3ncc4c(N5CCC[C@@](C)(O)C5)nc(OCC5(CN6CCN(CC7CCN(c8ccc9c(c8)n(C)c(=O)n9C8CCC(=O)NC8=O)CC7)CC6)CC5)nc4c3F)c12` (some centres unmarked) [Compound 24], for which the DC50 (class symbols) is above 300 nM. On the same count and under the same terms, the figure for `C#Cc1c(F)ccc2cccc(-c3ncc4c(N5CCC[C@@](C)(O)C5)nc(OCC5(CN6CCC(N7CCC(c8ccc9c(c8)n(C)c(=O)n9C8CCC(=O)NC8=O)CC7)CC6)CC5)nc4c3F)c12` (some centres unmarked) [Compound 39] is above 300 nM. The same measure, in the same setting: the figure for `C#Cc1c(F)ccc2cccc(-c3ncc4c(N5CCC[C@@](C)(O)C5)nc(OCC5(CN6CCC(CN7CCN(c8ccc9c(c8)n(C)c(=O)n9C8CCC(=O)NC8=O)CC7)CC6)CC5)nc4c3F)c12` (some centres unmarked) [Compound 26] is above 300 nM; for `C#Cc1c(F)ccc2cccc(-c3ncc4c(N5CCC[C@@](C)(O)C5)nc(OCC5(CN6CCC7(CC6)CC(N6CCN(c8ccc9c(c8)n(C)c(=O)n9C8CCC(=O)NC8=O)CC6)C7)CC5)nc4c3F)c12` (some centres unmarked) [Compound 41] it is above 300 nM; for `CCc1c(F)ccc2cc(O)cc(-c3ncc4c(N5CCC[C@@](C)(O)C5)nc(OC[C@@]56CCCN5[C@H](COC(=O)NCCOCCOc5ccc7c(c5)n(C)c(=O)n7C5CCC(=O)NC5=O)CC6)nc4c3F)c12` (stereo partly drawn) [Compound 112, ((3S,7aS)-7a-(((7-(8-ethyl-7-fluoro-3-hydroxynaphthalen-1-yl)-8-fluoro-4-((R)-3-hydroxy-3-methylpiperidin-1-yl)pyrido[4,3-d]pyrimidin-2-yl)oxy)methyl)hexahydro-1H-pyrrolizin-3-yl)methyl (2-(2-((1-(2,6-dioxopiperidin-3-yl)-3-methyl-2-oxo-2,3-dihydro-1H-benzo[d]imidazol-5-yl)oxy)ethoxy)ethyl) carbamate] it is above 300 nM. Under setting [1], `C#Cc1c(F)ccc2cccc(-c3ncc4c(N5CCC[C@@](C)(O)C5)nc(OCC5(CN6CCC7(CC6)CCN(c6ccc8c(c6)n(C)c(=O)n8C6CCC(=O)NC6=O)CC7)CC5)nc4c3F)c12` (some centres unmarked) [Compound 38] showed a DC50 above 100 nM. On to `C#Cc1c(F)ccc2cccc(-c3ncc4c(N5CCC[C@@](C)(O)C5)nc(OC[C@@]56CCCN5[C@H](COC(=O)N5CCC(CN7CCC(c8ccc9c(c8)n(C8CCC(=O)NC8=O)c(=O)n9C)CC7)CC5)CC6)nc4c3F)c12` (some centres unmarked) [Compound 136], for which the DC50 (class symbols) is above 300 nM. As to `C#Cc1c(F)ccc2cccc(-c3ncc4c(N5CCC[C@@](C)(O)C5)nc(OCC5(CN6CCC7(CC6)CC(N6CCC(c8ccc9c(C%10CCC(=O)NC%10=O)nn(C)c9c8)CC6)C7)CC5)nc4c3F)c12` (some centres unmarked) [Compound 35], under “class symbols”, the DC50 was above 300 nM. With `C#Cc1c(F)ccc2cccc(-c3ncc4c(N5CCC[C@@](C)(O)C5)nc(OC5CCN(CC(=O)N6CCC7(CC6)CC(N6CCC(c8ccc9c(c8)n(C)c(=O)n9C8CCC(=O)NC8=O)CC6)C7)CC5)nc4c3F)c12` (some centres unmarked) [Compound 87], the DC50 under setting [1] is above 100 nM.

Values taken from patent publication US12599672B2, “KRAS proteolysis targeting chimeras” (PAQ Therapeutics Inc., priority 2023, dated 2026).
